Laboratory results taken from patent US6528500B1, “Azole derivatives or salts thereof” (SSP Co., Ltd., priority 1999, dated 2003).
Values after ≈ are worked out from the molar mass of the structure shown. Counter-ions that a name gives are not always drawn.

Columns and labels:
[1] = system: C. albicans IFM 40009; assay: In vivo activities against the Candida albicans murine model; details: male ICR mice, C. albicans IFM 40009 3×10^6 cells/mouse i.v.; 1 mg/kg intravenously once daily for 4 days; observed 14 days; ***P < 0.001 relative to Infection control
Protocol: Four-week-old male ICR mice were fasted for 6 hours. The mice were inoculated at 3×10^6 cells/mouse of C. albicans IFM 40009 into the tail vein. The infection control group and the drug-treated group consisted of 10 and 5 animals, respectively. The compound of Example 1 and the parent compound were dissolved in 20% polyethylene glycol 200. The drug solutions were intravenously administered at the dose of 1 mg/kg once daily for 4 consecutive days after infection. […] Paired comparison of duration of survival between the infection control and drug-treated groups were analyzed by Log-Rank test.

[2] = Aqueous solubility comparison; format: physicochemical; details: water (aqueous solubility), parent compound in the form of a free base
Description: The compound obtained in Example 1 was compared in aqueous solubility with a parent (non-phosphorylated) compound (in the form of a free base).

Q: With `CCS(=O)(=O)C(F)(F)C(O)(Cn1cncn1)c1ccc(F)cc1F` (single isomer, unassigned; (-)) [Parent compound, (−)-2-(2,4-difluorophenyl)-1-(ethylsulfonyl)-1,1-difluoro-3-(1H-1,2,4-triazol-1-yl)-2-propanol, reference compound] as the compound, how does the Average surviving days [1] read?
A: Its Average surviving days is 14.0*** days.

Q: What about the solubility [2] of the same compound?
A: The solubility was 500 µg/mL (≈ 1360 µM).

Q: Which melting point does the source give for `CS(=O)(=O)C(F)(F)C(Cn1cncn1)(OP(=O)(O)O)c1ccc(F)cc1F` (centres unmarked) (as salt: phosphate) here?
A: The melting point was 216 to 218 °C.

Q: For `CCS(=O)(=O)C(F)(F)C(Cn1cncn1)(OP(=O)(O)O)c1ccc(F)cc1F` (single isomer, unassigned; (+)) [Example 1, (+)-1-(2,4-difluorophenyl)-2-(ethylsulfonyl)-2,2-difluoro-1-(1H-1,2,4-triazole-1-ylmethyl)ethyl Dihydrogen Phosphate], which Average surviving days [1] is on record?
A: Its Average surviving days is 14.0*** days.

Q: And the solubility [2]?
A: Its solubility is 4800 µg/mL.
